The values below come from US9365533B2, “Coumarin derivative” (NIPPON ZOKI PHARMACEUTICAL CO., LTD., priority 2012, dated 2016).

The structures appear in SMILES notation. Counter-ions that a name gives are not always drawn.

The subject of test [1] is HFLS-OA cells. Nature of the test: Suppressive action to TNF-α-induced proliferation of synovial cells (HFLS-OA), BrdU ELISA. To be noted: 200 μmol/L test substance, human recombinant TNF-α 10 ng/mL, 5 days, BrdU incorporation increase by TNF-α = 100%; for activity at 200 µM: Synovial cell, 120 h, read-out: Synovial Cell Proliferation Rate (%). In kind it is cell-based. The procedure:
Evaluation of Suppressive Action to Cell Proliferation of Synovial Cells (HFLS-OA) Derived from Tissues of Human Osteoarthritis
(1) Incubation of HFLS-OA Cells
HFLS-OA cells were sown onto a 96-well plate so as to make them 10^4 cells/well/100 μL in a D-MEM containing 2 vol % of fetal bovine serum (FBS) and incubated for 24 hours. A test substance (200 μmol/L) and human recombinant TNF-α (10 ng/mL) were added thereto followed by incubating for 5 days.
(2) Measurement of Action to HFLS-OA Cell Proliferation
A kit [Cell Proliferation ELISA, BrdU (colorimetric) (Roche Diagnostics)] was used and measurement was conducted according to the protocol attached to the kit. HFLS-OA cells were incubated for 3 days and 10 μL of 5-bromo-2′-deoxyuridine (BrdU) dissolved in a phosphate buffered saline (PBS) (100 μmol/L, pH 7.4) was added to each well followed by incubating for 48 hours more. After the culture supernatant was removed from each well, 200 μL/well of an immobilization/denaturation solution was added thereto and the mixture was allowed to stand for 30 minutes whereby immobilization of the cells and denaturation of DNA were conducted. After the immobilization/denaturation solution was completely removed, 100 μL of a peroxidase-labeled anti-BrdU antibody solution was added thereto and the mixture was made to react at room temperature for 90 minutes. After washing with PBS, 100 μL of a substrate liquid (tetramethylbenzidine) was added to each well and the absorbance was measured. A cell proliferation rate upon addition of each test substance was calculated where an increase in incorporation of BrdU upon addition of TNF-α was defined as 100% of cell proliferation rate.

For test [2], the system named is cartilage pieces of bovine metacarpophalangeal joint. Nature of the test: Suppressive action to cartilage destruction: release of sGAG induced by IL-1α from cartilage pieces. It counts as cell-based. To be noted: 25 μmol/L test substance, 2 h pretreatment, human recombinant IL-1α 3 ng/mL, 4 days at 37° C.; for inhibition at 25 µM: Bos taurus, 96 h, read-out: sGAG Releasing Suppressive Rate (%). The procedure:
Evaluation of Suppressive Action to Cartilage Destruction [Release of sGAG Induced by Interleukin-1α (IL-1α)]
(1) Incubation of Cartilage Pieces
Each four cartilage pieces of bovine metacarpophalangeal joint were placed in each well of a 48-well plate and pretreated for 2 hours with a basal medium [D-MEM (Dulbecco's Modified Eagle Medium) containing 2 mmol/L of glutamine, 25 mmol/L of Hepes, 100 μg/mL of streptomycin, 100 IU/mL of penicillin and 5.6 μg/mL of amphotericin B] containing 25 μmol/L of a test substance. Human recombinant IL-1α (3 ng/mL) was added thereto followed by incubating at 37° C. for 4 days in a CO2 incubator set at 5 vol % of CO2. Culture supernatant and cartilage pieces were recovered and stored by freezing until the measurement for each of them.
(2) Measurement of the Amount of sGAG and Calculation of the Suppressive Rate for the Release of sGAG
The recovered cartilage pieces were treated with a papain solution [containing 1 mg/mL of papain, 100 mmol/L of sodium phosphate (pH 6.5), 5 mmol/L of L-cysteine and 5 mmol/L of disodium ethylenediaminetetraacetate (EDTA)] at 65° C. for about 16 hours to solubilize. Amount of sGAG in the resulting extract was measured using an sGAG Alcian Blue Binding Kit (Wieslab AB) which is a quantitative kit to which a Alcian blue staining protocol is applied. sGAG in the culture supernatant after the incubation was measured without subjecting to a papain treatment. Each releasing rate of sGAG was determined by the following formula to calculate the suppressive rate for the release of sGAG. Releasing rate (%) of sGAG={(Total sGAG amount in the culture supernatant)/[(Total sGAG amount in the culture supernatant)+(Total sGAG amount in the cartilage pieces)]}×100 Suppressive rate (%) for release of sGAG={[Releasing rate of sGAG (IL-1α stimulation)−Releasing rate of sGAG (Test substance)]/[Releasing rate of sGAG (IL-1α stimulation)−Releasing rate of sGAG (Non-stimulation)]}×100

For `O=c1oc2c(OS(=O)(=O)c3ccccc3)cccc2cc1NS(=O)(=O)c1cccc(F)c1` [Compound 25, 3-[(3-Fluorophenyl)sulfonylamino]-2-oxochromen-8-yl benzenesulfonate], the activity at 200 µM in test [1] was -40.9%. Moreover, in test [2], the inhibition at 25 µM is 77%.
As to `O=c1oc2c(OS(=O)(=O)c3ccccc3)cccc2cc1NS(=O)(=O)c1ccc(F)c(F)c1` [Compound 26, 3-[(3,4-Difluorophenyl)sulfonylamino]-2-oxochromen-8-yl benzenesulfonate], the activity at 200 µM in test [1] was -38.4%. Also, in test [2], the inhibition at 25 µM stood at 97%.
Turning to `O=c1oc2c(OS(=O)(=O)c3ccccc3)cccc2cc1NS(=O)(=O)c1ccc(C(F)(F)F)cc1` [Compound 27, 2-Oxo-3-[[4-(trifluoromethyl)phenyl]sulfonylamino]-chromen-8-yl benzenesulfonate], in test [1], the activity at 200 µM was -36.3%. Further, in test [2], the inhibition at 25 µM is 162%.
The like results for `O=c1oc2c(OS(=O)(=O)c3ccccc3)cccc2cc1NS(=O)(=O)c1cccc(C(F)(F)F)c1` [Compound 28, 2-Oxo-3-[[3-(trifluoromethyl)phenyl]sulfonylamino]-chromen-8-yl benzenesulfonate] were, in that order, -33.7% and 140%.
With `O=c1oc2c(OS(=O)(=O)c3ccccc3)cccc2cc1NS(=O)(=O)c1ccc(Cl)cc1` [Compound 29, 3-[(4-Chlorophenyl)sulfonylamino]-2-oxochromen-8-yl benzenesulfonate], in test [1], the activity at 200 µM is -31.3%. Moreover, the inhibition at 25 µM in test [2] stood at 121%.
For `O=c1oc2c(OS(=O)(=O)c3ccccc3)cccc2cc1NS(=O)(=O)c1ccc(-c2ccccc2)cc1` [Compound 30, 2-Oxo-3-[(4-phenylphenyl)sulfonylamino]chromen-8-yl benzenesulfonate], the activity at 200 µM in test [1] was -33%. The inhibition at 25 µM in test [2] was found to be 141%.
In the case of `O=c1oc2c(OS(=O)(=O)c3ccccc3)cccc2cc1NS(=O)(=O)c1cccc(Br)c1` [Compound 31, 3-[(3-Bromophenyl)sulfonylamino]-2-oxochromen-8-yl benzenesulfonate], the activity at 200 µM in test [1] was -37.1%. Further, the inhibition at 25 µM in test [2] was 135%.
As for `O=c1oc2c(OS(=O)(=O)c3cccc(Br)c3)cccc2cc1NS(=O)(=O)c1cccc(Br)c1` [Compound 32, 3-[(3-Bromophenyl)sulfonylamino]-2-oxochromen-8-yl 3-bromobenzenesulfonate], the activity at 200 µM in test [1] is -41.1%. Also, the inhibition at 25 µM in test [2] stood at 202%.
In the same order, the values of `O=c1oc2c(OS(=O)(=O)c3cccc(C(F)(F)F)c3)cccc2cc1NS(=O)(=O)c1cccc(C(F)(F)F)c1` [Compound 33, 2-Oxo-3-[[3-(trifluoromethyl)phenyl]sulfonylamino]-chromen-8-yl 3-(trifluoromethyl)benzenesulfonate] are -40% and 147%.
On to `O=c1oc2c(OS(=O)(=O)c3cccc(Br)c3)cccc2cc1NS(=O)(=O)c1ccccc1` [Compound 34, 3-(Benzenesulfonamide)-2-oxochromen-8-yl 3-bromobenzenesulfonate], for which, in test [1], the “Synovial Cell Proliferation Rate (%)” value is −31.6%. In test [2], the “sGAG Releasing Suppressive Rate (%)” value was 109%.
In the same order, the values of `O=c1oc2c(OS(=O)(=O)c3cccc(C(F)(F)F)c3)cccc2cc1NS(=O)(=O)c1ccccc1` [Compound 35, 3-(Benzenesulfonamide)-2-oxochromen-8-yl 3-(trifluoromethyl)benzenesulfonate] are −31.5% and 103%.
In the case of `O=c1oc2c(OS(=O)(=O)c3cccnc3)cccc2cc1NS(=O)(=O)c1cccc(Br)c1` [Compound 36], in test [1], the “Synovial Cell Proliferation Rate (%)” value was −33.9%. Further, the “sGAG Releasing Suppressive Rate (%)” value in test [2] is on record as 30%.
Regarding `CS(=O)(=O)Oc1cccc2cc(NS(=O)(=O)c3cccc(Br)c3)c(=O)oc12` [Compound 37, 3-[(3-Bromophenyl)sulfonylamino)]-2-oxochromen-8-yl methanesulfonate], the “Synovial Cell Proliferation Rate (%)” value in test [1] was −22.6%. In test [2], the “sGAG Releasing Suppressive Rate (%)” value came to 17%.
For the compound `O=c1oc2c(OS(=O)(=O)c3cccc(Br)c3)cccc2cc1NS(=O)(=O)c1cccnc1` [Compound 38, 2-Oxo-3-(3-pyridylsulfonylamino)chromen-8-yl 3-bromobenzenesulfonate], in test [1], the activity at 200 µM is -31.2%. Further, the inhibition at 25 µM in test [2] is 67%.
As to `O=c1oc2c(OS(=O)(=O)c3ccc([N+](=O)[O-])cc3)cccc2cc1NS(=O)(=O)c1cccc(C(F)(F)F)c1` [Compound 41, 2-Oxo-3-[[3-(trifluoromethyl)phenyl]sulfonylamino]-chromen-8-yl 4-nitrobenzenesulfonate], in test [1], the activity at 200 µM is -37.7%. Further, the inhibition at 25 µM in test [2] was found to be 172%.
The like results for `O=c1oc2c(OS(=O)(=O)c3cccc(C(F)(F)F)c3)cccc2cc1NS(=O)(=O)c1ccc([N+](=O)[O-])cc1` [Compound 42, 3-[(4-Nitrophenyl)sulfonylamino]-2-oxochromen-8-yl 3-(trifluoromethyl)benzenesulfonate] were, in that order, -35.5% and 163%.
The like results for `O=c1oc2c(OS(=O)(=O)c3cccs3)cccc2cc1NS(=O)(=O)c1cccc([N+](=O)[O-])c1` [Compound 43, 3-[(3-Nitrophenyl)sulfonylamino]-2-oxochromen-8-yl thiophene-2-sulfonate] were, in that order, -30.3% and 107%.
For `O=c1oc2c(OS(=O)(=O)c3cccc([N+](=O)[O-])c3)cccc2cc1NS(=O)(=O)c1cccs1` [Compound 44, 2-Oxo-3-(2-thienylsulfonylamino)chromen-8-yl 3-nitrobenzenesulfonate], in test [1], the activity at 200 µM is -31.5%. Besides, in test [2], the inhibition at 25 µM came to 118%.
The like results for `Nc1ccc(S(=O)(=O)Oc2cccc3cc(NS(=O)(=O)c4cccc(C(F)(F)F)c4)c(=O)oc23)cc1` [Compound 46, 2-Oxo-3-[[3-(trifluoromethyl)phenyl]sulfonylamino]-chromen-8-yl 4-aminobenzenesulfonate hydrochloride] were, in that order, -37% and 98%.
The like results for `Nc1ccc(S(=O)(=O)Nc2cc3cccc(OS(=O)(=O)c4cccc(C(F)(F)F)c4)c3oc2=O)cc1` [Compound 47, 3-[(4-Aminophenyl)sulfonylamino]-2-oxochromen-8-yl 3-(trifluoromethyl)benzenesulfonate] were, in that order, -40.1% and 69%.
The like results for `CCOC(=O)c1ccc(S(=O)(=O)Oc2cccc3cc(NS(=O)(=O)c4cccc([N+](=O)[O-])c4)c(=O)oc23)cc1` [Compound 48, Ethyl 4-[3-[(3-nitrophenyl)sulfonylamino]-2-oxochromen-8-yl]oxysulfonylbenzoate] were, in that order, -34.9% and 122%.
As to `O=C(O)c1ccc(S(=O)(=O)Oc2cccc3cc(NS(=O)(=O)c4cccc([N+](=O)[O-])c4)c(=O)oc23)cc1` [Compound 49, 4-[3-[(3-Nitrophenyl)sulfonylamino]-2-oxochromen-8-yl]oxysulfonylbenzoic acid], in test [1], the activity at 200 µM was -36.1%. For the same compound, the inhibition at 25 µM in test [2] came out at 38%.
